What all share (format): biochemical
The target in assay [1] is T1, Sporidiobolus salmonicolor ketoreductase, wild type (WT), UniProt Q9UUN9, SEQ ID NO: 1 (Sporobolomyces salmonicolor, UniProt Q9UUN9).
T1 sequence (Q9UUN9 1-343): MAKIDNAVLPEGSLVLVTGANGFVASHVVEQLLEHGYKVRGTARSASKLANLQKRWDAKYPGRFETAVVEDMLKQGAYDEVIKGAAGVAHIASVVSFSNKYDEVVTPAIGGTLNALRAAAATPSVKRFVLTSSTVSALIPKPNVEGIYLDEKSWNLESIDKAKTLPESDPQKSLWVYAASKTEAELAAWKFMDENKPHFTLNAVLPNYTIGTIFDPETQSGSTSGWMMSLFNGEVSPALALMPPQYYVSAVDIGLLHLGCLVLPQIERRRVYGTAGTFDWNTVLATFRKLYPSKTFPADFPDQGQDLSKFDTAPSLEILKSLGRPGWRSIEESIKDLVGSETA
Put plainly: Kinetic characterization (app. KM, app. kcat), Table 9c, wild type. Conditions: reference = 1.

Assay [2] concerns the target T2, Sporidiobolus salmonicolor ketoreductase variant E00158, Trp97_Lys238_Met241_Trp242_Ser245_Met316_Met342, SEQ ID NO: 6, His-tag (Sporobolomyces salmonicolor, UniProt Q9UUN9, A238K/F97W/L241M/L316M/M242W/Q245S/T342M).
T2 sequence (Q9UUN9 1-343 F97W/A238K/L241M/M242W/Q245S/L316M/T342M): T1 sequence (Q9UUN9 1-343) with F97W, A238K, L241M, M242W, Q245S, L316M, T342M
Put plainly: Kinetic characterization (app. KM, app. kcat), Table 9c, variant E00158. To be noted: E00158, relative to WT = 1.

Assay [3] addresses T3, Sporidiobolus salmonicolor ketoreductase variant E00184, Trp97_Ala224_Lys238_Met241_Trp242_Ser245_Gly246_Met316_Met342, SEQ ID NO: 8, His-tag (Sporobolomyces salmonicolor, UniProt Q9UUN9, A238K/F97W/L241M/L316M/M242W/Q245S/S224A/T342M/Y246G).
T3 sequence (Q9UUN9 1-343 F97W/S224A/A238K/L241M/M242W/Q245S/Y246G/L316M/T342M): T1 sequence (Q9UUN9 1-343) with F97W, S224A, A238K, L241M, M242W, Q245S, Y246G, L316M, T342M
Put plainly: Kinetic characterization (app. KM, app. kcat), Table 9c, variant E00184 (first line). Conditions: relative to WT = 1.

For assay [4], the target named is T4, Sporidiobolus salmonicolor ketoreductase variant E00174, Trp97_Lys238_Met241_Trp242_Ser245_Gly246_Met316_Met342, SEQ ID NO: 7, His-tag (Sporobolomyces salmonicolor, UniProt Q9UUN9, A238K/F97W/L241M/L316M/M242W/Q245S/T342M/Y246G).
T4 sequence (Q9UUN9 1-343 F97W/A238K/L241M/M242W/Q245S/Y246G/L316M/T342M): T1 sequence (Q9UUN9 1-343) with F97W, A238K, L241M, M242W, Q245S, Y246G, L316M, T342M
Put plainly: Kinetic characterization (app. KM, app. kcat), Table 9c, variant E00174.

Assay [5] has as its target T5, Sporidiobolus salmonicolor ketoreductase variant E00128, Trp97_Met241_Trp242_Ser245, SEQ ID NO: 2, His-tag (Sporobolomyces salmonicolor, UniProt Q9UUN9, F97W/L241M/M242W/Q245S).
T5 sequence (Q9UUN9 1-343 F97W/L241M/M242W/Q245S): T1 sequence (Q9UUN9 1-343) with F97W, L241M, M242W, Q245S
Put plainly: Kinetic characterization (app. KM, app. kcat), Table 9c, variant E00128. To be noted: E00128, relative to WT = 1.

The target of assay [6] is T6, Sporidiobolus salmonicolor ketoreductase variant E00184 (second line so labelled); in Table 9b W97 V134 A224 K238 M241 W242 S245 G246 M316 M342, the mutations of (Sporobolomyces salmonicolor, UniProt Q9UUN9, A238K/F97W/L241M/L316M/M242W/Q245S/S224A/T134V/T342M/Y246G).
T6 construct: second row labelled E00184, evidently E00185
T6 sequence (Q9UUN9 1-343 F97W/T134V/S224A/A238K/L241M/M242W/Q245S/Y246G/L316M/T342M): T1 sequence (Q9UUN9 1-343) with F97W, T134V, S224A, A238K, L241M, M242W, Q245S, Y246G, L316M, T342M
Put plainly: Kinetic characterization (app. KM, app. kcat), Table 9c, variant E00184 (second line). Conditions: relative to WT = 1.

Assay [7] concerns the target T7, Sporidiobolus salmonicolor ketoreductase variant E00144, Trp97_Met241_Trp242_Ser245_Met316_Met342, SEQ ID NO: 3, His-tag (Sporobolomyces salmonicolor, UniProt Q9UUN9, F97W/L241M/L316M/M242W/Q245S/T342M).
T7 sequence (Q9UUN9 1-343 F97W/L241M/M242W/Q245S/L316M/T342M): T1 sequence (Q9UUN9 1-343) with F97W, L241M, M242W, Q245S, L316M, T342M
Put plainly: Kinetic characterization (app. KM, app. kcat), Table 9c, variant E00144. To be noted: E00144, relative to WT = 1.

Positions count from the first letter of the chain named.

Take `C[C@@H]1CC(=O)c2ncnc(N3CCN(C(=O)OC(C)(C)C)CC3)c21` [ketone of formula Ib]: the rel. kcat turned out to be 1 in assay [1]; 31 in assay [2]; 43 in assay [3]; 94 in assay [4] (relative to WT = 1, substrate saturation not reached); 12 in assay [5]; 64 in assay [6]. Besides, the rel. kcat in assay [7] was 13. This molecule also gave an app. kcat in assay [4] (substrate saturation not reached) of 45.8 ± 2.4 min−^1.

Source of the values: US20260117203A1, “MUTANT KETOREDUCTASE WITH INCREASED KETOREDUCTASE ACTIVITY AS WELL AS METHODS AND USES INVOLVING THE SAME” (Hoffmann-La Roche Inc., priority 2023, published 2026).
